Measured values reported in US7022725B2, “Isoxazole derivatives” (Takeda Pharmaceutical Company Limited, priority 2000, dated 2006).

Compared with `O=C(O)CCc1conc1-c1ccc(Cl)c(Cl)c1` [Example 111, 3-[3-(3,4-dichlorophenyl)-4-isoxazolyl]propionic acid], `O=C(O)CCc1conc1-c1ccc(Cl)c(F)c1` [Example 117, 3-[3-(4-chloro-3-fluorophenyl)-4-isoxazolyl]propionic acid] is lower in melting point: 181 to 182 °C for the first, 148 to 149 °C for the second.

First: O=C(O)CCc1cnoc1-c1ccc(F)cc1 [Example 11, 3-[5-(4-fluorophenyl)-4-isoxazolyl]propionic acid]
Second: Cc1ccc(-c2oncc2CCC(=O)O)cc1 [Example 12, 3-[5-(4-methylphenyl)-4-isoxazolyl]propionic acid]
The melting point of the first is higher: 126 to 127 °C for the first, 121 to 122 °C for the second.

First: Cc1noc(-c2ccccc2)c1CCC(N)=O [Example 28, 3-(3-methyl-5-phenyl-4-isoxazolyl)propionamide]
Second: NC(=O)CCc1cnoc1-c1ccccc1 [Example 22, 3-(5-phenyl-4-isoxazolyl)propionamide]
The melting point of the first is lower: 149 to 151 °C for the first, 151 to 152 °C for the second.

First: O=C(O)CCc1cnoc1-c1cc(Cl)ccc1Cl [Example 98, 3-[5-(2,5-dichlorophenyl)-4-isoxazolyl]propionic acid]
Second: O=C(O)CCc1cnoc1-c1ccc(Cl)cc1Cl [Example 69, 3-[5-(2,4-dichlorophenyl)-4-isoxazolyl]propionic acid]
The melting point of the first is lower: 103 to 104 °C for the first, 106 to 107 °C for the second.

First: O=C(O)CCc1conc1-c1ccc(Cl)cc1 [Example 5, 3-[3-(4-chlorophenyl)-4-isoxazolyl]propionic acid]
Second: NC(=O)CCc1conc1-c1ccc(Cl)cc1 [Example 18, 3-[3-(4-chlorophenyl)-4-isoxazolyl]propionamide]
The melting point of the first is lower: 149 to 150 °C for the first, 158 to 159 °C for the second.

First: COC(=O)CCc1cnoc1-c1ccc(Cl)s1 [Example 65, methyl 3-[5-(5-chloro-2-thienyl)-4-isoxazolyl]propionate]
Second: COC(=O)CCc1cnoc1-c1cc(Cl)c(Cl)s1 [Example 124, methyl 3-[5-(4,5-dichloro-2-thienyl)-4-isoxazolyl]propionate]
The melting point of the first is lower: 34 to 35 °C for the first, 49 to 50 °C for the second.

Compared with `COc1ccc(-c2oncc2CCC(=O)O)cc1` [Example 13, 3-[5-(4-methoxyphenyl)-4-isoxazolyl]propionic acid], `O=C(O)CCc1cnoc1-c1ccc(OC(F)(F)F)cc1` [Example 1, 3-[5-(4-trifluoromethoxyphenyl)-4-isoxazolyl]propionic acid] is higher in melting point: 101 to 102 °C for the first, 116 to 118 °C for the second.

Compared with `Cc1cc(-c2oncc2CCCO)ccc1Cl` [Example 97, 3-[5-(4-chloro-3-methylphenyl)-4-isoxazolyl]propan-1-ol], `Cc1cc(-c2oncc2CCC(=O)O)ccc1Cl` [Example 95, 3-[5-(4-chloro-3-methylphenyl)-4-isoxazolyl]propionic acid] is higher in melting point: 50 to 51 °C for the first, 158 to 159 °C for the second.

First: O=C(O)/C=C/c1cnoc1-c1ccccc1 [Example 24, (E)-3-(5-phenyl-4-isoxazolyl)propenoic acid]
Second: NC(=O)/C=C/c1cnoc1-c1ccccc1 [Example 25, (E)-3-(5-phenyl-4-isoxazolyl)propenamide]
The melting point of the first is higher: 197 to 199 °C for the first, 194 to 196 °C for the second.

Compared with `O=C(O)CCc1c(-c2ccccc2)noc1-c1ccccc1` [Example 146, 3-[3,5-diphenyl-4-isoxazolyl]propionic acid], `O=C(O)CCc1c(-c2ccccc2)noc1O` [Example 143, 3-[5-hydroxy-3-phenyl-4-isoxazolyl]propionic acid] is higher in melting point: 152 to 153 °C for the first, 183 to 184 °C for the second.

First: O=C(O)CCc1cnoc1-c1ccccc1 [Example 7, 3-(5-phenyl-4-isoxazolyl)propionic acid]
Second: CCNC(=O)CCc1cnoc1-c1ccccc1 [Example 23, N-ethyl-3-(5-phenyl-4-isoxazolyl)propionamide]
The melting point of the first is higher: 90 to 91 °C for the first, 75 to 76 °C for the second.

Compared with `CCNC(=O)/C=C/c1cnoc1-c1ccccc1` [Example 27, (E)-N-ethyl-3-(5-phenyl-4-isoxazolyl)propenamide], `Cc1noc(-c2ccccc2)c1/C=C/C(=O)O` [Example 136, (E)-3-(3-methyl-5-phenyl-4-isoxazolyl)propenoic acid] is higher in melting point: 156 to 157 °C for the first, 173 to 174 °C for the second.

Compared with `CCOP(=O)(O)Cc1ccc(NC(=O)CCc2cnoc2-c2ccccc2)cc1`, `O=C(CCc1cnoc1-c1ccccc1)Nc1ccc(CP(=O)(O)O)cc1` [Example 413 (byproduct), 3-(5-Phenyl-4-isoxazolyl)-N-[4-(phosphonomethyl)phenyl]propionamide] is higher in melting point: 80 to 82 °C for the first, 162 to 164 °C for the second.

Compared with `CSc1ccc(-c2oncc2CCCO)cc1` [Example 105, 3-[5-(4-methylthiophenyl)-4-isoxazolyl]propan-1-ol], `C[S+]([O-])c1ccc(-c2oncc2CCCO)cc1` (stereo not drawn) [Example 107, 3-[5-(4-methylsulfinylphenyl)-4-isoxazolyl]propan-1-ol] is higher in melting point: 54 to 55 °C for the first, 73 to 74 °C for the second.

First: Cc1onc(-c2ccc(C(F)(F)F)cc2)c1CCC(=O)O [Example 144, 3-[5-methyl-3-(4-trifluoromethylphenyl)-4-isoxazolyl]propionic acid]
Second: Cc1onc(-c2cccc(C(F)(F)F)c2)c1CCC(=O)O [Example 145, 3-[5-methyl-3-(3-trifluoromethylphenyl)-4-isoxazolyl]propionic acid]
The melting point of the first is higher: 138 to 139 °C for the first, 63 to 64 °C for the second.

First: O=C(O)CCc1cnoc1-c1cc(Cl)cc(Cl)c1 [Example 74, 3-[5-(3,5-dichlorophenyl)-4-isoxazolyl]propionic acid]
Second: O=C(O)CCc1cnoc1-c1cccc(Cl)c1 [Example 86, 3-[5-(3-chlorophenyl)-4-isoxazolyl]propionic acid]
The melting point of the first is higher: 143 to 144 °C for the first, 110 to 111 °C for the second.

Compared with `CS(=O)(=O)c1ccc(-c2oncc2CCCO)cc1` [Example 106, 3-[5-(4-methylsulfonylphenyl)-4-isoxazolyl]propan-1-ol], `OCCCc1cnoc1-c1ccc(C(F)(F)F)cc1` [Example 62, 3-[5-(4-trifluoromethylphenyl)-4-isoxazolyl]propan-1-ol] is lower in melting point: 125 to 126 °C for the first, 85 to 86 °C for the second.

Compared with `O=C(O)CCc1cnoc1-c1ccc(C(F)(F)F)cc1` [Example 10, 3-[5-(4-trifluoromethylphenyl)-4-isoxazolyl]propionic acid], `COC(=O)CCc1cnoc1-c1ccc(C(F)(F)F)cc1` [Example 60, methyl 3-[5-(4-trifluoromethylphenyl)-4-isoxazolyl]propionate] is lower in melting point: 171 to 172 °C for the first, 68 to 69 °C for the second.

First: O=C(O)CCc1cnoc1-c1ccc(-c2ccccc2)cc1 [Example 131, 3-[5-(4-phenylphenyl)-4-isoxazolyl]propionic acid]
Second: O=C(O)CCc1conc1-c1ccc(-c2ccccc2)cc1 [Example 57, 3-[3-(4-phenylphenyl)-4-isoxazolyl]propionic acid]
The melting point of the first is lower: 94 to 95 °C for the first, 169 to 170 °C for the second.

First: O=C(O)CCc1conc1-c1ccc(F)c(Cl)c1 [Example 114, 3-[3-(3-chloro-4-fluorophenyl)-4-isoxazolyl]propionic acid]
Second: O=C(O)CCc1conc1-c1ccc(F)c(Br)c1 [Example 125, 3-[3-(3-bromo-4-fluorophenyl)-4-isoxazolyl]propionic acid]
The melting point of the first is lower: 140 to 141 °C for the first, 151 to 152 °C for the second.

Compared with `O=C(O)CCc1conc1-c1ccc(C(F)(F)F)cc1` [Example 140, 3-[3-(4-trifluoromethylphenyl)-4-isoxazolyl]propionic acid], `Cc1onc(-c2ccc(Cl)cc2)c1CCC(=O)O` [Example 141, 3-[3-(4-chlorophenyl)-5-methyl-4-isoxazolyl]propionic acid] is higher in melting point: 173 to 174 °C for the first, 187 to 188 °C for the second.

First: O=C(O)CCc1cnoc1-c1ccc(Cl)c(Br)c1 [Example 6, 3-[5-(3-bromo-4-chlorophenyl)-4-isoxazolyl]propionic acid]
Second: O=C(O)CCc1cnoc1-c1ccc(Cl)c(F)c1 [Example 108, 3-[5-(4-chloro-3-fluorophenyl)-4-isoxazolyl]propionic acid]
The melting point of the first is higher: 177 to 180 °C for the first, 139 to 140 °C for the second.

First: CCOP(=O)(Cc1ccc(NC(=O)CCc2cnoc2-c2ccc(F)cc2)cc1)OCC
Second: CSc1ccc(-c2oncc2CCC(=O)O)cc1 [Example 103, 3-[5-(4-methylthiophenyl)-4-isoxazolyl]propionic acid]
The melting point of the first is higher: 134 to 135 °C for the first, 124 to 125 °C for the second.

First: O=C(O)CCc1cnoc1-c1ccc2c(c1)OCO2 [Example 89, 3-[5-(1,3-benzodioxol-5-yl)-4-isoxazolyl]propionic acid]
Second: O=C(O)CCc1cnoc1-c1ccc(F)c(Br)c1 [Example 128, 3-[5-(3-bromo-4-fluorophenyl)-4-isoxazolyl]propionic acid]
The melting point of the first is higher: 150 to 151 °C for the first, 136 to 137 °C for the second.

First: COC(=O)CCc1cnoc1-c1ccc(F)cc1F [Example 61, methyl 3-[5-(2,4-difluorophenyl)-4-isoxazolyl]propionate]
Second: O=C(O)CCc1cnoc1-c1ccc(F)cc1F [Example 59, 3-[5-(2,4-difluorophenyl)-4-isoxazolyl]propionic acid]
The melting point of the first is lower: 40 to 41 °C for the first, 125 to 126 °C for the second.

First: O=C(O)CCc1cnoc1-c1ccc([N+](=O)[O-])cc1 [Example 80, 3-[5-(4-nitrophenyl)-4-isoxazolyl]propionic acid]
Second: COc1ccc(-c2oncc2CCC(=O)O)cc1OC [Example 100, 3-[5-(3,4-dimethoxyphenyl)-4-isoxazolyl]propionic acid]
The melting point of the first is higher: 204 to 205 °C for the first, 169 to 170 °C for the second.

First: CCc1onc(-c2ccc(Cl)cc2)c1CCC(=O)O [Example 142, 3-[3-(4-chlorophenyl)-5-ethyl-4-isoxazolyl]propionic acid]
Second: Cc1onc(-c2ccccc2Cl)c1CCC(=O)O [Example 147, 3-[3-(2-chlorophenyl)-5-methyl-4-isoxazolyl]propionic acid]
The melting point of the first is higher: 164 to 165 °C for the first, 79 to 81 °C for the second.
